Earlier results as cited in patent publication US20060122197A1, “Amido compounds and their use as pharmaceuticals” (priority 2004, published 2006).

Biological target: T1, 11βHSD1 in the eye (Homo sapiens, UniProt P28845)
T1 construct: host or cells: eye of healthy volunteers (in vivo)
Settings: healthy volunteers; after seven days of carbenoxolone treatment

T1 sequence (P28845 whole entry): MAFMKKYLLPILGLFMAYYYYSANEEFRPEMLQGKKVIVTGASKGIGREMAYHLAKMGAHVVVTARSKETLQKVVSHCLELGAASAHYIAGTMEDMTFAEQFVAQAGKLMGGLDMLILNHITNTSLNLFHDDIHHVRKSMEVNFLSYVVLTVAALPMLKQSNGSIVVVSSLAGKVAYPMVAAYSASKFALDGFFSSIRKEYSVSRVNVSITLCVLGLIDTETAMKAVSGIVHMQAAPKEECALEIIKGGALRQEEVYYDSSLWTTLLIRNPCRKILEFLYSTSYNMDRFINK

CC1(C)[C@@H](OC(=O)CCC(=O)O)CC[C@]2(C)[C@H]3C(=O)C=C4[C@@H]5C[C@@](C)(C(=O)O)CC[C@]5(C)CC[C@@]4(C)[C@]3(C)CC[C@@H]12 [carbenoxolone]
IOP was reduced by: 18%
